Source: patent publication US7687651B2, “Method for the preparation of trans-or cis-diammoniumdichlorodihydroxoplatinum(IV) and the use thereof in the production of pharmaceutical active substances” (priority 2003, dated 2010)

Tests used:
Type in all cases: cell-based, human
HCT-15 Colon carcinoma = experiment: Growth inhibition test on HCT-15 cells; conditions: Table 1
Procedure: (§1) Growth inhibition tests on various human cell lines show the different activities of cisplatin, cis-oxoplatin and oxaliplatin. […] The following Table illustrates the results produced with cisplatin, oxoplatin, carboplatin and oxaliplatin (the values specified are IC50 values in μg/ml, i.e., the concentration where 50% of the cells survive, nd=not determined; res=resistant=non-sensitive or IC50 value cannot be determined at a concentration of up to 40 μg/ml; IC=inhibition concentration).

MCF-7 Breast cancer = experiment: Growth inhibition test on MCF-7 cells; conditions: Table 1
Procedure: as §1

M518 Melanoma = experiment: Growth inhibition test on M518 cells; conditions: Table 1
Procedure: as §1

HT29 Colon carcinoma = experiment: Growth inhibition test on HT29 cells
Procedure: (§2) The effect of cis-oxoplatin Ca and cis-oxoplatin was compared on 10 cell lines (Table 4).
(§3) (IC50 values specified in μg/ml; the test was performed as a formazan test).

Me128 Melanoma = experiment: Growth inhibition test on Me128 cells; conditions: Table 1
Procedure: as §1

M607 Melanoma = experiment: Growth inhibition test on M607 cells; conditions: Table 1
Procedure: as §1

JVSO Melanoma = experiment: Growth inhibition test on JVSO cells; conditions: Table 1
Procedure: as §1

[1] = test system: MiaPaCa2 Pancreatic cancer; experiment: Growth inhibition test on MiaPaCa2 cells; conditions: Table 1
Procedure: as §1

Colo205 Colon carcinoma = experiment: Growth inhibition test on Colo205 cells
Procedure: as §2, §3

PC3 Prostate = experiment: Growth inhibition test on PC3 cells; conditions: for IC50: PC3 Prostate; for % Survival: PC3 cells
Procedure: as §1

C320DM Colon carcinoma = experiment: Growth inhibition test on C320DM cells; conditions: Table 1
Procedure: as §1

CC1227 Colon carcinoma = experiment: Growth inhibition test on CC1227 cells; conditions: Table 1
Procedure: as §1

SaOS Osteosarcoma = experiment: Growth inhibition test on SaOS cells; conditions: Table 1
Procedure: as §1

HCT8 Colon carcinoma = experiment: Growth inhibition test on HCT8 cells; conditions: Table 1
Procedure: as §1

Panc1 Pancreatic cancer = experiment: Growth inhibition test on Panc1 cells; conditions: Table 1
Procedure: as §1

A498 Renal cells = experiment: Growth inhibition test on A498 cells; conditions: Table 1
Procedure: as §1

HOS Osteosarcoma = experiment: Growth inhibition test on HOS cells; conditions: Table 1
Procedure: as §1

BxPC3 Pancreatic cancer = experiment: Growth inhibition test on BxPC3 cells
Procedure: as §2, §3

T47D Breast cancer = experiment: Growth inhibition test on T47D cells
Procedure: as §2, §3

CaCo-2 Colon = experiment: Growth inhibition test on CaCo-2 cells; conditions: for IC50: CaCo-2 Colon
Procedure: as §2, §3

U 373 MG Astrocytoma = experiment: Growth inhibition test on U 373 MG cells; conditions: Table 2
Procedure: as §1

SW480 Colon = experiment: Growth inhibition test on SW480 cells; conditions: for IC50: SW480 Colon
Procedure: as §2, §3

CRO2B Carcinoid = experiment: Growth inhibition test on CRO2B cells; conditions: for IC50: CRO2B Carcinoid
Procedure: as §2, §3

SK-OV4 Ovarian cancer = experiment: Growth inhibition test on SK-OV4 cells
Procedure: as §1

SK-OV3 Ovarian cancer = experiment: Growth inhibition test on SK-OV3 cells; conditions: Table 2
Procedure: as §1

[2] = test system: HT29, SW480, SK-OV4, PC3, SIM, CaCO-2, DU145 and CRO2B cells; experiment: Growth inhibition, IC50 over eight cell lines of Table 2; conditions: CaCO-2, DU145, CRO2B
Procedure: as §1
The activities differ according to the cell line.

Du145 Prostate = experiment: Growth inhibition test on Du145 cells; conditions: for IC50: Du145 Prostate
Procedure: as §2, §3

SIM Sarcoma = experiment: Growth inhibition test on SIM cells
Procedure: as §1
What is seen primarily in children are leukemias, neuroblastomas and Ewing's sarcoma/peripheral neuroectodermal tumors (group of the Ewing family of tumors=EFT). The investigated tumor cell lines include three EFTs (EW-7, SIM and KAL), as well as two neuroblastoma cell lines (NB: LAN1 and LAN5; Los Angeles neuroblastoma=LAN) (see Table 3).

10 cell lines (Table 4) = experiment: Formazan test, IC50 mean value for all cell lines of Table 4; conditions: mean over the 10 cell lines of Table 4
Procedure: as §2, §3

BT20 Breast = experiment: Formazan test on BT20 cells; conditions: Table 4
Procedure: as §2, §3

MDA-MB-435 Breast = experiment: Formazan test on MDA-MB-435 cells; conditions: Table 4
Procedure: as §2, §3

[3] = Table 1, Colo205 Colon carcinoma
[4] = Table 1, BxPC3 Pancreatic cancer

N.N.O=C([O-])C1(C(=O)[O-])CCC1.[Pt+2] [Carboplatin, carboplatin]
IC50 (HCT-15 Colon carcinoma): res (res=resistant=non-sensitive or IC50 value cannot be determined at a concentration of up to 40 μg/ml) | IC50 (MCF-7 Breast cancer): res (res=resistant=non-sensitive or IC50 value cannot be determined at a concentration of up to 40 μg/ml) | IC50 (M518 Melanoma): res (res=resistant=non-sensitive or IC50 value cannot be determined at a concentration of up to 40 μg/ml) | IC50 (HT29 Colon carcinoma; Table 1, HT29 Colon carcinoma): 20 µg/mL | IC50 (Me128 Melanoma): 10 µg/mL | IC50 (M607 Melanoma): 10 µg/mL | IC50 (JVSO Melanoma): res (res=resistant=non-sensitive or IC50 value cannot be determined at a concentration of up to 40 μg/ml) | IC50 [1]: 5 µg/mL | IC50 (Colo205 Colon carcinoma; [3]): res (res=resistant=non-sensitive or IC50 value cannot be determined at a concentration of up to 40 μg/ml) | IC50 (PC3 Prostate; Table 1): 10 µg/mL | IC50 (C320DM Colon carcinoma): 10 µg/mL | IC50 (CC1227 Colon carcinoma): res (res=resistant=non-sensitive or IC50 value cannot be determined at a concentration of up to 40 μg/ml) | IC50 (SaOS Osteosarcoma): 5 µg/mL | IC50 (HCT8 Colon carcinoma): res (res=resistant=non-sensitive or IC50 value cannot be determined at a concentration of up to 40 μg/ml) | IC50 (Panc1 Pancreatic cancer): 20 µg/mL | IC50 (A498 Renal cells): res (res=resistant=non-sensitive or IC50 value cannot be determined at a concentration of up to 40 μg/ml) | IC50 (HOS Osteosarcoma): 5 µg/mL | IC50 (BxPC3 Pancreatic cancer; [4]): 10 µg/mL

N.N.[Cl][Pt][Cl] [Cisplatin, cisplatin]
IC50 (HCT-15 Colon carcinoma): 0.3 µg/mL | IC50 (MCF-7 Breast cancer): 2.5 µg/mL | IC50 (M518 Melanoma): 40 µg/mL | IC50 (HT29 Colon carcinoma; Table 1, HT29 Colon carcinoma): 0.3 µg/mL | IC50 (Me128 Melanoma): 0.3 µg/mL | IC50 (M607 Melanoma): 0.3 µg/mL | IC50 (JVSO Melanoma): 40 µg/mL | IC50 [1]: 1.5 µg/mL | IC50 (Colo205 Colon carcinoma; [3]): 10 µg/mL | IC50 (T47D Breast cancer; Table 1, T47D Breast cancer): 0.3 µg/mL | IC50 (PC3 Prostate; Table 1): res (res=resistant=non-sensitive or IC50 value cannot be determined at a concentration of up to 40 μg/ml) | IC50 (C320DM Colon carcinoma): 0.3 µg/mL | IC50 (CC1227 Colon carcinoma): 0.3 µg/mL | IC50 (HCT8 Colon carcinoma): 5 µg/mL | IC50 (Panc1 Pancreatic cancer): 1 µg/mL | IC50 (A498 Renal cells): 1 µg/mL | IC50 (BxPC3 Pancreatic cancer; [4]): 0.6 µg/mL

O=C1[O][Pt]2([NH][C@@H]3CCCC[C@H]3[NH]2)[O]C1=O [Oxaliplatin, oxaliplatin]
IC50 (HCT-15 Colon carcinoma): 10 µg/mL | IC50 (MCF-7 Breast cancer): res (res=resistant=non-sensitive or IC50 value cannot be determined at a concentration of up to 40 μg/ml) | IC50 (M518 Melanoma): res (res=resistant=non-sensitive or IC50 value cannot be determined at a concentration of up to 40 μg/ml) | IC50 (HT29 Colon carcinoma; Table 1, HT29 Colon carcinoma): 20 µg/mL | IC50 (Me128 Melanoma): 10 µg/mL | IC50 (M607 Melanoma): 10 µg/mL | IC50 (JVSO Melanoma): res (res=resistant=non-sensitive or IC50 value cannot be determined at a concentration of up to 40 μg/ml) | IC50 [1]: 5 µg/mL | IC50 (Colo205 Colon carcinoma; [3]): 1 µg/mL | IC50 (T47D Breast cancer; Table 1, T47D Breast cancer): 0.1 µg/mL | IC50 (C320DM Colon carcinoma): 0.15 µg/mL | IC50 (CC1227 Colon carcinoma): 0.2 µg/mL | IC50 (HCT8 Colon carcinoma): res (res=resistant=non-sensitive or IC50 value cannot be determined at a concentration of up to 40 μg/ml) | IC50 (Panc1 Pancreatic cancer): 5 µg/mL | IC50 (A498 Renal cells): 10 µg/mL | IC50 (BxPC3 Pancreatic cancer; [4]): 10 µg/mL

[NH2][Pt]([NH2])([O-])([O-])([Cl])[Cl].[Na+].[Na+] [cis-Oxoplatin sodium salt, cis-diammoniumdichlorodihydroxoplatinum(IV) Disodium Salt]
efficiency compared with cis-oxoplatin (CaCo-2 Colon; CaCO-2, Na salt versus cis-oxoplatin): less efficient | IC50 (CaCo-2 Colon; Table 2): 2.22 µg/mL | IC50 (U 373 MG Astrocytoma): 18 µg/mL | more effective than cis-oxoplatin (HT29 Colon carcinoma; HT29, Na salt versus cis-oxoplatin): about 70% | IC50 (HT29 Colon carcinoma; Table 2, HT29 Colon): 4.55 µg/mL | more effective than cis-oxoplatin (SW480 Colon; SW480, Na salt versus cis-oxoplatin): about 70% | IC50 (SW480 Colon; Table 2): 2.5 µg/mL | efficiency compared with cis-oxoplatin (CRO2B Carcinoid; CRO2B, Na salt versus cis-oxoplatin): less efficient | IC50 (CRO2B Carcinoid; Table 2): 10.1 µg/mL | more effective than cis-oxoplatin (SK-OV4 Ovarian cancer; SK-OV4, Na salt versus cis-oxoplatin): about 30% | IC50 (SK-OV4 Ovarian cancer; Table 2, SK-OV4 Ovarian cancer): 12.8 µg/mL | IC50 (SK-OV3 Ovarian cancer): 22 µg/mL | IC50 (T47D Breast cancer; Table 2, T47D Breast cancer): 18 µg/mL | more effective than cis-oxoplatin (PC3 Prostate; PC3, Na salt versus cis-oxoplatin): about 30% | % Survival (PC3 Prostate; Conc. 5 μg/ml): 109.3 ± 9.1% | % Survival (PC3 Prostate; Conc. 10 μg/ml): 77.7 ± 2.4% | % Survival (PC3 Prostate; Conc. 20 μg/ml): 33.2 ± 3.0% | % Survival (PC3 Prostate; Conc. 40 μg/ml): 0.6 ± 0.5% | IC50 (PC3 Prostate; Table 2): 5.3 µg/mL | IC50 values of these cells (mean ± spread) [2]: 9.5 ± 8 µg/mL | efficiency compared with cis-oxoplatin (Du145 Prostate; DU145, Na salt versus cis-oxoplatin): less efficient | IC50 (Du145 Prostate; Table 2): 27.0 µg/mL | IC50 (BxPC3 Pancreatic cancer; Table 2, BxPC3 Pancreatic carcinoma): 12 µg/mL | more effective than cis-oxoplatin (SIM Sarcoma; SIM, Na salt versus cis-oxoplatin): about 30% | IC50 (SIM Sarcoma; Table 2, SIM Sarcoma): 11.2 µg/mL

cis-diammoniumdichlorodihydroxoplatinum(IV) Calcium Salt [Oxoplatin Ca]
IC50 (CaCo-2 Colon; Table 4, formazan test): 0.87 µg/mL | IC50 (HT29 Colon carcinoma; Table 4, HT29 Colon, formazan test): 8.0 µg/mL | IC50 (SW480 Colon; Table 4, formazan test): 2.5 µg/mL | IC50 (CRO2B Carcinoid; Table 4, formazan test): 2.20 µg/mL | IC50 (Colo205 Colon carcinoma; Table 4, Colo205 Colon, formazan test): 13.5 µg/mL | IC50 (T47D Breast cancer; Table 4, T47D Breast, formazan test): 3.6 µg/mL | IC50 (±SEM) mean value for all cell lines (10 cell lines (Table 4)): 9.1 ± 2.8 µg/mL | IC50 (Du145 Prostate; Table 4, formazan test): 14.5 µg/mL | IC50 (BT20 Breast): 3.5 µg/mL | IC50 (BxPC3 Pancreatic cancer; Table 4, BxPC3 Pancreas, formazan test): 30.0 µg/mL | IC50 (MDA-MB-435 Breast): 12.0 µg/mL
